According to patent US20210123061A1, “METHODS AND COMPOSITIONS FOR TREATING INFLAMMATORY DISEASE OR DISORDER” (THE BRIGHAM AND WOMEN'S HOSPITAL, INC., priority 2018, published 2021):

Tests used:
[1] = system: IFN-γ-induced chemokine mRNA; test: Real-time PCR of IFN-γ-induced genes in PBMC-derived macrophages; assay type: cell-based, human; conditions: 1 or 10 μM for two hours, then IFN-γ eight hours, vs DMSO
Description: FIGS. 4A-D show silencing RSK1 suppresses IFN-γ-induced chemokines in human primary macrophages. (FIG. 4A and FIG. 4B) Human PBMC-derived macrophages were treated with control siRNA or RSK1 siRNA followed by treatment with IFN-γ for the indicated time. Total RNA samples were subjected to real-time PCR analysis using the indicated probes and primers. GAPDH was used for normalization. (FIG. 4A) Representative results from one donor. Data are means±SD. (FIG. 4B) Quantification of the area-under-the-curve (AUC) plots of the real-time PCR data in panel (FIG. 4A). Data are means±SE. N=3 donors. *P<0.05 and **P<0.01 indicate significance for AUC of mRNA levels by paired Student's test. (FIG. 4C) Macrophages were treated with DMSO or BI-D1870 (1 or 10 μM) for two hours followed by stimulation with IFN-γ for eight hours. Total RNA samples were subjected to real-time PCR analysis using the indicated probes and primers. GAPDH was used for normalization. Data are means±SE. N=3-4 donors. *P<0.05 and **P<0.01 indicate significance for mRNA levels compared to control (treatment with DMSO and IFN-γ) by Dunnett's comparison test. […] Secreted chemokine levels were measured using ELISA. […]
Real-time PCR. […] The mRNA levels were determined by TaqMan-based real-time PCR reactions (Thermo Fisher Scientific). […] Data were normalized by human GAPDH and then calculated using the delta-delta Ct method.

[2] = system: STAT1 phosphorylation (Ser727, Tyr701); test: Immunoblot of STAT1 phosphorylation in IFN-γ-stimulated PBMC-derived macrophages; assay type: cell-based, human; conditions: pre-treatment two hours, 60 minutes of IFN-γ stimulation, vs DMSO
Description: FIGS. 3A-3F show RSK1 is activated through JAK signaling and its inhibition suppresses STAT1 phosphorylation at Ser727 in human primary macrophages in response to IFN-γ. (FIG. 3A) PBMC-derived macrophages were pre-treated with DMSO or 10 μM a pan-JAK inhibitor, pyridone-6, for two hours and then stimulated with IFN-γ for indicated time under serum starvation. Cell lysates were subjected to immunoprecipitation with normal IgG or anti-RSK1 followed by immunoblot analysis using the indicated antibodies. WCL, whole cell lysate. N=3 donors. (FIG. 3B) Immunoblots of cell lysates from macrophages that were transfected with control siRNA or RSK1 siRNA followed by stimulation with IFN-γ for indicated time under serum starvation. N=2 donors. (FIG. 3C) Immunoblots of cell lysates from macrophages that were pre-treated with DMSO or BI-D1870 for two hours and subsequently left unstimulated or stimulated with IFN-γ for 1 hour under serum starvation. (FIG. 3D) Densitometric based quantification (ImageJ Software) of STAT1-pSer727 in panel (FIG. 3C) plus three additional donors. The phosphorylation levels in cells pretreated with DMSO and stimulated were defined as 1.0. Data are means±SE. N=6 donors. **P<0.01 indicate significance for phosphorylation levels compared to control (treatment with DMSO and IFN-γ) by Dunnett's comparison test. (FIG. 3E) Macrophages were treated with DMSO or BI-d1870 for two hours followed by IFN-γ stimulation under serum starvation. Cell lysates were subjected to immunoprecipitation with normal IgG or anti-STAT1-pSer727 followed by SYPRO ruby stain or immunoblot analysis with the indicated antibodies. Immunoprecipitants in the gel (red square) were in-gel digested for parallel reaction monitoring (PRM) mass spectrometry. (FIG. 3F) Quantification of PRM ions (MS/MS ions) of the indicated STAT1 peptide harboring a phosphorylation at Ser727 (and oxidized methionine, m), generated from the digest of panel […].
Cell culture of human PBMC-derived primary macrophages. […]

Question: Which “mRNA levels of pro-inflammatory chemokines such as CCL2/MCP-1” value [1] does the source give for `CC(C)CCN1c2nc(Nc3cc(F)c(O)c(F)c3)ncc2N(C)C(=O)C1C` (stereo not drawn) [BI-D1870] here?
Answer: attenuated

Question: What about the phospho-STAT1-Ser727 signal [2] of the same molecule?
Answer: attenuated signal

Question: And the phospho-STAT-Tyr701 signal [2]?
Answer: no change
